According to patent US20230131966A1, “FUNGICIDAL AMIDES” (FMC Corporation, priority 2020, published 2023):

What was measured:
Type in all cases: in vivo
Phakopsora pachyrhizi = assay: Test A: Asian soybean rust control on soybean seedlings; settings: 250 ppm; soybean seedlings; 100 = 100% disease control, 0 = no control
[1] = test system: Puccinia recondita f. sp. tritici; assay: Test B: wheat leaf rust control on wheat seedlings; settings: 250 ppm; wheat seedlings; 100 = 100% disease control, 0 = no control
Zymoseptoria tritici = assay: Test C: wheat leaf blotch control on wheat seedlings; settings: 250 ppm; wheat seedlings; 100 = 100% disease control, 0 = no control
Plasmopara viticola = assay: Test D: grape downy mildew control on grape seedlings; settings: 250 ppm, 100 = 100% disease control, 0 = no control
Botrytis cinerea = assay: Test E: tomato Botrytis control on tomato seedlings; settings: 250 ppm, 100 = 100% disease control, 0 = no control
Phytophthora infestans = assay: whole plant or invertebrate; settings: 250 ppm; tomato seedlings; 100 = 100% disease control, 0 = no control
[2] = test system: Erysiphe graminis f. sp. tritici; assay: Test G: wheat powdery mildew control on wheat seedlings; settings: 250 ppm, 100 = 100% disease control, 0 = no control

SMILES: COc1ccnc(C(=O)N[C@@H](C)C(=O)OC(C)c2ccc(C(C)(C)C)cc2)c1OC(C)=O (stereo partly shown) [Compound 121]
- Test A disease control rating (Phakopsora pachyrhizi): 100%
- Test B disease control rating [1]: 100%
- Test C disease control rating (Zymoseptoria tritici): 99%
- Test D disease control rating (Plasmopara viticola): 50%
- Test E disease control rating (Botrytis cinerea): 9%
- Test F disease control rating (Phytophthora infestans): 0%
- Test G disease control rating [2]: 0%
